Numbers after ± are expanded uncertainties.
Key:
[1] = cn = amount concentration of the nth substance listed, in mol/dm3; settings: 298.15 K, 101 kPa, Liquid; for viscosity: Capillary tube (Ostwald / Ubbelohde) method; for speed of sound: Linear variable-path acoustic interferometer; for mass density: Vibrating tube method
[2] = 298.15 K, 101.33 kPa, Liquid; for viscosity: Capillary tube (Ostwald / Ubbelohde) method; for speed of sound: Linear variable-path acoustic interferometer; for mass density: Vibrating tube method

CCCC[P+](CCCC)(CCCC)CCCC.F[B-](F)(F)F [tetrabutylphosphonium tetrafluoroborate] + C[S+](C)[O-]
[1]
Settings	mass density [kg/m3]	speed of sound [m/s]	viscosity [mPa·s]
c1 = 0.0046	1096.05 ± 0.31	1492.7 ± 2.1	1.952 ± 0.017
c1 = 0.0184	1096.4 ± 0.3	1501.5 ± 2.1	1.982 ± 0.018
c1 = 0.0323	1097.02 ± 0.31	1513.7 ± 2.1	2.015 ± 0.018
c1 = 0.0463	1097.84 ± 0.31	1527.9 ± 2.1	2.049 ± 0.018
c1 = 0.0604	1098.83 ± 0.32	1544.5 ± 2.1	2.085 ± 0.018
c1 = 0.0746	1099.98 ± 0.32	1564.6 ± 2.2	2.12 ± 0.019

C[S+](C)[O-] [dimethyl sulfoxide]
[2]
Settings	mass density [kg/m3]	speed of sound [m/s]	viscosity [mPa·s]
–	1096.02 ± 0.31	1490.8 ± 2.1	1.946 ± 0.017

CN(C)C=O [dimethylformamide]
[2]
Settings	mass density [kg/m3]	speed of sound [m/s]	viscosity [mPa·s]
–	944.5 ± 0.23	1451.7 ± 2	0.794 ± 0.009

CCCC[P+](CCCC)(CCCC)CCCC.F[B-](F)(F)F [tetrabutylphosphonium tetrafluoroborate] + CC(=O)N(C)C
[1]
Settings	mass density [kg/m3]	speed of sound [m/s]	viscosity [mPa·s]
c1 = 0.0053	937.22 ± 0.24	1461.8 ± 2.1	0.93 ± 0.01
c1 = 0.0215	938.69 ± 0.24	1473.5 ± 2.1	0.949 ± 0.01
c1 = 0.0377	940.34 ± 0.24	1486.9 ± 2.1	0.968 ± 0.01
c1 = 0.0541	942.13 ± 0.24	1501.6 ± 2.1	0.987 ± 0.01
c1 = 0.0705	944.01 ± 0.24	1517.8 ± 2.1	1.007 ± 0.01
c1 = 0.0871	945.94 ± 0.24	1536.3 ± 2.1	1.028 ± 0.01

CC(=O)N(C)C [N,N-dimethylethanamide]
[2]
Settings	mass density [kg/m3]	speed of sound [m/s]	viscosity [mPa·s]
–	936.8 ± 0.23	1458.5 ± 2	0.923 ± 0.01

CCCC[P+](CCCC)(CCCC)CCCC.F[B-](F)(F)F [tetrabutylphosphonium tetrafluoroborate] + CN(C)C=O
[1]
Settings	mass density [kg/m3]	speed of sound [m/s]	viscosity [mPa·s]
c1 = 0.0053	944.98 ± 0.24	1455.6 ± 2.1	0.802 ± 0.009
c1 = 0.0213	946.61 ± 0.24	1468.7 ± 2.1	0.82 ± 0.009
c1 = 0.0374	948.4 ± 0.2	1483.2 ± 2.1	0.837 ± 0.009
c1 = 0.0536	950.34 ± 0.24	1498.6 ± 2.1	0.854 ± 0.009
c1 = 0.0699	952.4 ± 0.2	1515.4 ± 2.1	0.871 ± 0.01
c1 = 0.0729	–	–	0.889 ± 0.01
c1 = 0.0863	954.5 ± 0.2	1533.8 ± 2.1	–
